Reference: patent publication US20190255073A1, “ESTERS OF 3-POLYAMINE DERIVATIVES OF BILE ACIDS FOR THE TREATMENT OF INFECTIONS” (VIRBAC, priority 2016, published 2019)
Values after ≈ are worked out from the molar mass of the structure shown.

Columns and labels:
CHO-K1 cells = test: WST1 cytotoxicity test on CHO-K1 cells; format: cell-based, Chinese hamster; conditions: Cricetulus griseus, CHO-K1, read-out: IC50 (μg/mL) CHO
Procedure, shortened: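 Viability read-out: WST-1 tetrazolium cleavage by mitochondrial dehydrogenases, 20 min at 37 °C, A450. Compounds added at rising concentrations, in duplicate, to CHO-K1 cells for 24 h (37 °C, 5% CO2). IC50, the concentration halving viability, fitted by nonlinear regression.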

P. aeruginosa (1051575) = test: Potentiation of ampicillin activity; format: cell-based, Pseudomonas aeruginosa; conditions: concentration of compound required with ampicillin 4 μg/mL
Method: This method requires the use of a 96-well plate: 100 μL of a liquid culture medium are placed in each well and then seeded with the microbial suspension prepared previously. The required volume to be seeded is calculated for an OD of 0.01, which corresponds to about 5×10^6 bacteria in each well. In this plate, the first line corresponds to a negative control (200 μL of sterile culture medium in each well), the second line corresponds to a positive control (100 μL of sterile culture medium+100 μL of the bacterial suspension), and the third line contains 192 μL of culture medium; 8 μL of compound of formula (I) to be tested are placed in each well. […] 92 μL of bacterial suspension are then added to lines 3 to 8. […] After 24 hours of incubation at 37° C., 40 μL of nitro tetrazolium iodide are added to each well to reveal the presence of live bacteria by staining the medium pink.
The procedure is identical to that indicated in Example 5 above. […]
The results are given in table V. They indicate the concentration of compound of formula (I) required to be able to restore the activity of the antibiotic under consideration.

CC(C)OC(=O)CC[C@@H](C)[C@H]1CCC2C3C(CC[C@@]21C)[C@@]1(C)CC[C@H](NCCCN(CCCN)CCCN)CC1C[C@H]3O (stereo partly drawn) [(39), isopropyl 3β-(tris(3-aminopropyl)amine)chenodeoxycholate]
IC50 (CHO-K1 cells): 110 µg/mL (≈ 182 µM)
MIC P. aeruginosa (1051575), compound + ampicillin (P. aeruginosa (1051575)): 30 µg/mL
